From ChEMBL document CHEMBL1201862, “PubChem BioAssay data set” (2004)
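Exposure lasted 48 hours, with cells grown in 96-well plates and compounds tested at five concentrations. GI50 is the concentration that inhibits growth by half.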 Active and inactive are the calls of the source. No stated cut-off is given here; in the data, active = GI50 up to about 1.1 µM and inactive = higher.

What was measured:
Assay in all cases: growth of human tumour cells (NCI), 48 h
786-0 = system: 786-0
A498 = system: A498
A549 = system: A549
ACHN = system: ACHN
CAKI-1 = system: CAKI-1
CCRF-CEM = system: CCRF-CEM
COLO 205 = system: COLO 205
DU-145 = system: DU-145
EKVX = system: EKVX
HCC 2998 = system: HCC 2998
HCT-116 = system: HCT-116
HCT-15 = system: HCT-15
HL-60 = system: HL-60
HOP-62 = system: HOP-62
HOP-92 = system: HOP-92
HT-29 = system: HT-29
Hs-578T = system: Hs-578T
IGROV-1 = system: IGROV-1
K562 = system: K562
KM12 = system: KM12
LOX IMVI = system: LOX IMVI
M14 = system: M14
MCF7 = system: MCF7
MDA-MB-231 = system: MDA-MB-231
MDA-MB-435 = system: MDA-MB-435
MDA-N = system: MDA-N
MOLT-4 = system: MOLT-4
Malme-3M = system: Malme-3M
NCI-H226 = system: NCI-H226
NCI-H23 = system: NCI-H23
NCI-H460 = system: NCI-H460
NCI/ADR-RES = system: NCI/ADR-RES
OVCAR-3 = system: OVCAR-3
OVCAR-4 = system: OVCAR-4
OVCAR-5 = system: OVCAR-5
OVCAR-8 = system: OVCAR-8
PC-3 = system: PC-3
RPMI-8226 = system: RPMI-8226
RXF 393 = system: RXF 393
SF-268 = system: SF-268
SF-295 = system: SF-295
SF-539 = system: SF-539
SK-MEL-28 = system: SK-MEL-28
SK-MEL-2 = system: SK-MEL-2
SK-MEL-5 = system: SK-MEL-5
SK-OV-3 = system: SK-OV-3
SN12C = system: SN12C
SNB-19 = system: SNB-19
SNB-75 = system: SNB-75
SR = system: SR
SW-620 = system: SW-620
T47D = system: T47D
TK-10 = system: TK-10
U-251 = system: U-251
UACC-257 = system: UACC-257
UO-31 = system: UO-31
NCI-H522 = system: NCI-H522
UACC-62 = system: UACC-62

For `O=C(NC(Cl)(C(F)(F)F)C(F)(F)F)c1ccc(F)cc1`, the GI50 (786-0) was > 100 µM (inactive), the GI50 (A498) was > 100 µM (inactive) and the GI50 (A549) was > 100 µM (inactive). For the same compound, the GI50 (ACHN) was > 100 µM (inactive), the GI50 (CAKI-1) was > 100 µM (inactive) and the GI50 (CCRF-CEM) was > 100 µM (inactive). For the same compound, the GI50 (COLO 205) was > 100 µM (inactive), the GI50 (DU-145) was > 100 µM (inactive) and the GI50 (EKVX) was > 100 µM (inactive). For the same compound, the GI50 (HCC 2998) was > 100 µM (inactive), the GI50 (HCT-116) was > 100 µM (inactive) and the GI50 (HCT-15) was > 100 µM. For the same compound, the GI50 (HL-60) was > 100 µM (inactive), the GI50 (HOP-62) was > 100 µM (inactive) and the GI50 (HOP-92) was > 100 µM (inactive). For the same compound, the GI50 (HT-29) was > 100 µM (inactive), the GI50 (Hs-578T) was > 100 µM (inactive) and the GI50 (IGROV-1) was > 100 µM (inactive). For the same compound, the GI50 (K562) was > 100 µM (inactive), the GI50 (KM12) was > 100 µM (inactive) and the GI50 (LOX IMVI) was > 100 µM (inactive). The GI50 (M14) was > 100 µM (inactive), the GI50 (MCF7) was > 100 µM (inactive) and the GI50 (MDA-MB-231) was > 100 µM (inactive). The GI50 (MDA-MB-435) was > 100 µM (inactive), the GI50 (MDA-N) was > 100 µM (inactive) and the GI50 (MOLT-4) was > 100 µM (inactive). The GI50 (Malme-3M) was > 100 µM (inactive), the GI50 (NCI-H226) was > 100 µM (inactive) and the GI50 (NCI-H23) was > 100 µM (inactive). The GI50 (NCI-H460) was > 100 µM (inactive), the GI50 (NCI/ADR-RES) was > 100 µM (inactive) and the GI50 (OVCAR-3) was > 100 µM (inactive). For the same compound, the GI50 (OVCAR-4) was > 100 µM (inactive), the GI50 (OVCAR-5) was > 100 µM (inactive) and the GI50 (OVCAR-8) was > 100 µM (inactive). For the same compound, the GI50 (PC-3) was > 100 µM (inactive), the GI50 (RPMI-8226) was > 100 µM (inactive) and the GI50 (RXF 393) was > 100 µM (inactive). The GI50 (SF-268) was > 100 µM (inactive), the GI50 (SF-295) was > 100 µM (inactive) and the GI50 (SF-539) was > 100 µM (inactive). For the same compound, the GI50 (SK-MEL-28) was > 100 µM (inactive), the GI50 (SK-MEL-2) was > 100 µM (inactive) and the GI50 (SK-MEL-5) was > 100 µM (inactive). For the same compound, the GI50 (SK-OV-3) was > 100 µM (inactive), the GI50 (SN12C) was > 100 µM (inactive) and the GI50 (SNB-19) was > 100 µM (inactive). The GI50 (SNB-75) was 0.789 µM (active), the GI50 (SR) was > 100 µM (inactive) and the GI50 (SW-620) was > 100 µM (inactive). For the same compound, the GI50 (T47D) was > 100 µM (inactive), the GI50 (TK-10) was > 100 µM (inactive) and the GI50 (U-251) was > 100 µM (inactive). For the same compound, the GI50 (UACC-257) was > 100 µM (inactive) and the GI50 (UO-31) was > 100 µM (inactive).

With `COc1nc2sc3c(c2c(=O)n1CCCSSCCCn1c(OC)nc2sc4c(c2c1=O)CCCC4)CCCC3` the GI50 (786-0) was > 100 µM (inactive), the GI50 (A549) was > 100 µM (inactive) and the GI50 (ACHN) was > 100 µM (inactive). The GI50 (CAKI-1) was > 100 µM (inactive), the GI50 (CCRF-CEM) was > 100 µM (inactive) and the GI50 (COLO 205) was > 100 µM (inactive). For the same compound, the GI50 (DU-145) was > 100 µM (inactive), the GI50 (EKVX) was > 100 µM (inactive) and the GI50 (HCC 2998) was > 100 µM (inactive). For the same compound, the GI50 (HCT-116) was > 100 µM (inactive), the GI50 (HCT-15) was > 100 µM and the GI50 (HOP-62) was > 100 µM (inactive). The GI50 (HOP-92) was > 100 µM (inactive), the GI50 (HT-29) was > 100 µM (inactive) and the GI50 (IGROV-1) was > 100 µM (inactive). For the same compound, the GI50 (K562) was > 100 µM (inactive), the GI50 (KM12) was > 100 µM (inactive) and the GI50 (LOX IMVI) was > 100 µM (inactive). For the same compound, the GI50 (M14) was > 100 µM (inactive), the GI50 (MCF7) was > 100 µM (inactive) and the GI50 (MDA-MB-231) was > 100 µM (inactive). The GI50 (MDA-MB-435) was > 100 µM (inactive), the GI50 (MDA-N) was > 100 µM (inactive) and the GI50 (MOLT-4) was > 100 µM (inactive). For the same compound, the GI50 (Malme-3M) was > 100 µM (inactive), the GI50 (NCI-H226) was > 100 µM (inactive) and the GI50 (NCI-H23) was > 100 µM (inactive). For the same compound, the GI50 (NCI-H522) was > 100 µM (inactive), the GI50 (NCI/ADR-RES) was > 100 µM (inactive) and the GI50 (OVCAR-4) was > 100 µM (inactive). For the same compound, the GI50 (OVCAR-5) was > 100 µM (inactive), the GI50 (OVCAR-8) was > 100 µM (inactive) and the GI50 (PC-3) was > 100 µM (inactive). For the same compound, the GI50 (RPMI-8226) was 6.92 µM (inactive), the GI50 (RXF 393) was > 100 µM (inactive) and the GI50 (SF-295) was > 100 µM (inactive). For the same compound, the GI50 (SF-539) was > 100 µM (inactive), the GI50 (SK-MEL-28) was > 100 µM (inactive) and the GI50 (SK-MEL-2) was > 100 µM (inactive). For the same compound, the GI50 (SK-MEL-5) was > 100 µM (inactive), the GI50 (SK-OV-3) was > 100 µM (inactive) and the GI50 (SN12C) was > 100 µM (inactive). The GI50 (SNB-19) was > 100 µM (inactive), the GI50 (SNB-75) was > 100 µM (inactive) and the GI50 (T47D) was > 100 µM (inactive). The GI50 (TK-10) was > 100 µM (inactive), the GI50 (U-251) was > 100 µM (inactive) and the GI50 (UACC-257) was > 100 µM (inactive). The GI50 (UACC-62) was > 100 µM (inactive) and the GI50 (UO-31) was > 100 µM (inactive).

For `COC(=O)CCc1ccc2c(c1)C(=O)CC2`, the GI50 (786-0) was > 100 µM (inactive), the GI50 (A498) was > 100 µM (inactive) and the GI50 (A549) was > 100 µM (inactive). For the same compound, the GI50 (ACHN) was > 100 µM (inactive), the GI50 (CCRF-CEM) was > 100 µM (inactive) and the GI50 (DU-145) was > 100 µM (inactive). For the same compound, the GI50 (EKVX) was > 100 µM (inactive), the GI50 (HCC 2998) was > 100 µM (inactive) and the GI50 (HCT-116) was > 100 µM (inactive). The GI50 (HCT-15) was > 100 µM, the GI50 (HL-60) was > 100 µM (inactive) and the GI50 (HOP-62) was > 100 µM (inactive). The GI50 (HOP-92) was > 100 µM (inactive), the GI50 (HT-29) was > 100 µM (inactive) and the GI50 (Hs-578T) was > 100 µM (inactive). The GI50 (IGROV-1) was > 100 µM (inactive), the GI50 (K562) was > 100 µM (inactive) and the GI50 (LOX IMVI) was > 100 µM (inactive). For the same compound, the GI50 (M14) was > 100 µM (inactive), the GI50 (MCF7) was > 100 µM (inactive) and the GI50 (MDA-MB-231) was > 100 µM (inactive). The GI50 (MDA-MB-435) was > 100 µM (inactive), the GI50 (MDA-N) was > 100 µM (inactive) and the GI50 (MOLT-4) was > 100 µM (inactive). For the same compound, the GI50 (Malme-3M) was > 100 µM (inactive), the GI50 (NCI-H23) was > 100 µM (inactive) and the GI50 (NCI-H460) was > 100 µM (inactive). The GI50 (NCI-H522) was > 100 µM (inactive), the GI50 (NCI/ADR-RES) was > 100 µM (inactive) and the GI50 (OVCAR-3) was > 100 µM (inactive). For the same compound, the GI50 (OVCAR-4) was > 100 µM (inactive), the GI50 (OVCAR-5) was > 100 µM (inactive) and the GI50 (OVCAR-8) was > 100 µM (inactive). The GI50 (PC-3) was > 100 µM (inactive), the GI50 (RPMI-8226) was > 100 µM (inactive) and the GI50 (RXF 393) was > 100 µM (inactive). For the same compound, the GI50 (SF-268) was > 100 µM (inactive), the GI50 (SF-295) was > 100 µM (inactive) and the GI50 (SF-539) was > 100 µM (inactive). The GI50 (SK-MEL-28) was > 100 µM (inactive), the GI50 (SK-MEL-2) was > 100 µM (inactive) and the GI50 (SK-MEL-5) was > 100 µM (inactive). The GI50 (SK-OV-3) was > 100 µM (inactive), the GI50 (SNB-19) was > 100 µM (inactive) and the GI50 (SNB-75) was 29.7 µM (inactive). For the same compound, the GI50 (SR) was > 100 µM (inactive), the GI50 (SW-620) was > 100 µM (inactive) and the GI50 (T47D) was > 100 µM (inactive). For the same compound, the GI50 (TK-10) was > 100 µM (inactive), the GI50 (U-251) was > 100 µM (inactive) and the GI50 (UACC-257) was > 100 µM (inactive). For the same compound, the GI50 (UO-31) was > 100 µM (inactive).
